The values below come from patent US8278469B2, “17-hydroxy-17-pentafluoroethyl-estra-4,9(10)-dien-11-aryl derivatives, method of production thereof and use thereof for the treatment of diseases” (Bayer Pharma Aktiengesellschaft, priority 2009, dated 2012).

Each structure is given as a SMILES string. pIC50: −log10 of the molar value. Like-named read-outs stand apart in the source and are kept apart here.

Data set [1] in a line: Metabolic stability in human liver microsomes (HLM). To be noted: HLM 0.5 mg/ml protein, 1 μM, 37° C., pH 7.4; well-stirred model, phase I reactions. The data set is classed as in vitro ADME. The protocol: Metabolic Stability of (11β,17β)-17-hydroxy-11-[4-(methylsulphonyl)phenyl]-17-(pentafluoroethyl)estra-4,9-dien-3-one and (11β,17β)-17-hydroxy-11-[4′-(methylsulphonyl)-biphenyl-4-4-yl]-17-(pentafluoroethyl)estra-4,9-dien-3-one in Human Liver Microsomes (HLM)
Isolated human liver microsomes (HLM) were used for assessing the metabolic stability of compounds of general formula I.
Incubations were carried out with 2.4 ml of HLM solution (0.5 mg/ml protein content), 30 μl of the test compound (final concentration 1 μM) and 0.6 ml of the cofactor mixture (=NADPH-generating system of 3 IU glucose-6-phosphate dehydrogenase, 14.6 mg glucose-6-phosphate, 1.2 mg NADP) at 37° C. in 100 mM phosphate buffer at pH 7.4. Samples are taken at 6 time points (2-60 min), precipitated with an equal volume of methanol and the recovery of the test substances used in the supernatant is determined by LC-MS/MS analysis. The intrinsic clearance of the substance in the liver microsome preparation can be calculated from the half-life found for the breakdown of the substance. Based on this, together with various physiological characteristics according to the well-stirred model, it is then possible to predict a (metabolic) in vivo clearance with respect to phase I reactions. […]

Data set [2] concerns the target T1, human progesterone receptor B (PR-B) (Homo sapiens, UniProt P06401).
T1 construct: expressed in transfected cells; host or cells: SK-N-MC human neuroblastoma cells, stably transfected with pRChPR-B-neo and pMMTV-LUC
T1 sequence (P06401 1-933): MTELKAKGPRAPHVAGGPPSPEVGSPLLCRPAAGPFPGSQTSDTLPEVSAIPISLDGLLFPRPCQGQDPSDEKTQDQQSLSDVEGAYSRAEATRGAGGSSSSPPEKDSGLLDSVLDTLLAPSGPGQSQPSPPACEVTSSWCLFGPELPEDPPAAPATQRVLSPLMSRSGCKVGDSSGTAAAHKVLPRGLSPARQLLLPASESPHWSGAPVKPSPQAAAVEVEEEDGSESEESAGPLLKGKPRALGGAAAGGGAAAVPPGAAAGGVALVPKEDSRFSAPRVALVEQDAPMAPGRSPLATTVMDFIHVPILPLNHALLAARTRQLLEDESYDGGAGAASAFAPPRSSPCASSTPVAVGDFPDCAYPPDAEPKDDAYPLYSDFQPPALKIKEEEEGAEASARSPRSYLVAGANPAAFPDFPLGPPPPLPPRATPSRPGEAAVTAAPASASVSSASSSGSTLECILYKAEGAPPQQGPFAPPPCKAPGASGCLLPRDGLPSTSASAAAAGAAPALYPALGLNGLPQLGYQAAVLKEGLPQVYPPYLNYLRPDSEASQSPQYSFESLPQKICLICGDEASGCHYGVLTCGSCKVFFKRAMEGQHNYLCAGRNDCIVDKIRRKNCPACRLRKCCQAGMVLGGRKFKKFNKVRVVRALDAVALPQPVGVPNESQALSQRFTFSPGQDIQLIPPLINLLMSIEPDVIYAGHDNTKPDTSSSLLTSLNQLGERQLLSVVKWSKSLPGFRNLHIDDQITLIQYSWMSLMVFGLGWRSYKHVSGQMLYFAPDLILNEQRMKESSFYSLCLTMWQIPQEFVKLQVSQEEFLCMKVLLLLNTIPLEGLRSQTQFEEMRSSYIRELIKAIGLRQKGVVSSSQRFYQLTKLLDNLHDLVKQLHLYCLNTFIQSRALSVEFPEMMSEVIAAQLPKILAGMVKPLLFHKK
Nature of the data set: Progesterone receptor-antagonistic action in stable transfectants of SK-N-MC cells with human PR-B and MTV-LUC reporter. The data set is classed as cell-based. To be noted: for Emax: read-out: Progesterone receptor B (PR-B) Efficacy; for pIC50: antagonistic activity against 0.1 nmol/l promegestone, LUC reporter, read-out: Progesterone receptor B (PR-B) Potency IC50. The protocol:
(§1) Progesterone Receptor-Antagonistic Action in Stable Transfectants of Human Neuroblastoma Cells (SK-N-MC Cells) with the Human Progesterone A or Progesterone B Receptor and an MTV-LUC Reporter Construct
(§2) SK-N-MC cells (human neuroblastoma cells), which have been stably transfected with plasmids, which express the human progesterone receptor B (pRChPR-B-neo) or the human progesterone receptor A (pRChPR-A-neo) and a reporter construct (pMMTV-LUC), were incubated for 24 hours either in the absence (negative control) or in the presence of increasing amounts of the respective test compound (0.01 nmol/l, 0.1 nmol/l, 1 nmol/l, 10 nmol/l, 100 nmol/l and 1 μmol/l), in order to determine the agonistic efficacy. As positive control of reporter gene induction, the cells were treated with the synthetic gestagen promegestone (0.01 nmol/l, 0.1 nmol/l, 1 nmol/l, 10 nmol/l, 100 nmol/l and 1 μmol/l). For determination of the antagonistic activity, the cells were treated with 0.1 nmol/l promegestone and additionally with increasing amounts of the respective test compound (0.01 nmol/l, 0.1 nmol/l, 1 nmol/l, 10 nmol/l, 100 nmol/l and 1 μmol/l). The activity of the LUC reporter gene (LUC=luciferase) was determined in the cell lysates and was measured as RLU (relative light units). All measured values are given as percentage efficacy and as EC50 or IC50 concentrations.
(§3) 11β-(4-Acetylphenyl)-20,20,21,21,21-pentafluoro-17-hydroxy-19-nor-17α-pregna-4,9-dien-3-one and 20,20,21,21,21-pentafluoro-17-hydroxy-11β-[4-(hydroxyacetyl)phenyl]-19-nor-17α-pregna-4,9-dien-3-one, very potent and therefore preferred examples from WO98/34947 and WO2008/058767, were tested as comparative compounds along with the test compound.

In data set [3] the target is T2, human progesterone receptor A (PR-A) (Homo sapiens, UniProt P06401).
T2 construct: expressed in transfected cells; host or cells: SK-N-MC human neuroblastoma cells, stably transfected with pRChPR-A-neo and pMMTV-LUC
T2 sequence (P06401 1-769 isoform P06401-2): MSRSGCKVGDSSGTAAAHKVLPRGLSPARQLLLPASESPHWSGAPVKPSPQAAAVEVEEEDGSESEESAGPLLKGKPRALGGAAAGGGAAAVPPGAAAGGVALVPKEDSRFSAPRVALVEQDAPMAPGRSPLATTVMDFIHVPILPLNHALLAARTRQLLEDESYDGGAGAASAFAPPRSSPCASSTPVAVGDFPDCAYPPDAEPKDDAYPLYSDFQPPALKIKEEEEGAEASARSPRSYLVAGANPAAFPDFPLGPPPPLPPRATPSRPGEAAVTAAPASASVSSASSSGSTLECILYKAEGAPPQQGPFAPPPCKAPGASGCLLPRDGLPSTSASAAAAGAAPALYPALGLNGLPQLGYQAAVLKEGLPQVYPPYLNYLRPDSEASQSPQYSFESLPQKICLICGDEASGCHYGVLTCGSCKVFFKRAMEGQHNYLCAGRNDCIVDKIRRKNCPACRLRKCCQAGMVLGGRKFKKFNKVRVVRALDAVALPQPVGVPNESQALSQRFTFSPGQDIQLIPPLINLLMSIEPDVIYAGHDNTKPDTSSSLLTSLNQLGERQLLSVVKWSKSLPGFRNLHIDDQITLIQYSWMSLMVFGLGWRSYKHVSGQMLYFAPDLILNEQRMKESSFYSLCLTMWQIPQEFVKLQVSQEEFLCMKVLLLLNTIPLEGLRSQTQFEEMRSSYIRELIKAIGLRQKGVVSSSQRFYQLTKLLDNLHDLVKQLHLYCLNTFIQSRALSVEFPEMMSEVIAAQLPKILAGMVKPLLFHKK
Put plainly: Progesterone receptor-antagonistic action in stable transfectants of SK-N-MC cells with human PR-A and MTV-LUC reporter. It counts as cell-based. To be noted: for Emax: read-out: Progesterone receptor A (PR-A) Efficacy; for pIC50: antagonistic activity against 0.1 nmol/l promegestone, LUC reporter, read-out: Progesterone receptor A (PR-A) Potency IC50. The protocol: as §1, §2, §3

The mark [4] stands for this setting: antagonistic efficacy against 0.1 nmol/l promegestone, SK-N-MC cells, 24 hours.

Turning to `C[C@]12C[C@H](c3ccc(-c4ccc(S(C)(=O)=O)cc4)cc3)C3=C4CCC(=O)C=C4CC[C@H]3[C@@H]1CC[C@@]2(O)C(F)(F)C(F)(F)F` [Example 10, (11β,17β)-17-hydroxy-11-[4′-(methylsulphonyl)biphenyl-4-yl]-17-(pentafluoroethyl)estra-4,9-dien-3-one], the “(metabolic) in vivo clearance in humans predicted” value in data set [1] was under 0.17 mL/min/kg. For the same compound, the Emax in data set [2] (setting [4]) and in data set [3] (setting [4]) was 100% each time.
`C[S+]([O-])c1ccc([C@H]2C[C@@]3(C)[C@@H](CC[C@@]3(O)C(F)(F)C(F)(F)F)[C@@H]3CCC4=CC(=O)CCC4=C32)cc1` (mixture of isomers) [Example 3, (11β,17β)-17-Hydroxy-11-{4-[(RS)-methylsulphinyl]phenyl}-17-(pentafluoroethyl)estra-4,9-dien-3-one]: the Emax was found to be 100% in data set [2] (SK-N-MC, 24 h) and 100% in data set [3] (SK-N-MC, 24 h). Besides, the pIC50 in data set [2] (SK-N-MC cells, 24 hours) is 9.92; in data set [3] (SK-N-MC cells, 24 hours), 9.96.
Regarding `Cc1ccc(S(=O)(=O)N=S(C)(=O)c2ccc(-c3ccc([C@H]4C[C@@]5(C)C(CC[C@@]5(O)C(F)(F)C(F)(F)F)C5CCC6=CC(=O)CCC6=C54)cc3)cc2)cc1` (mixture of isomers) [Example 11, N-[{4′-[(11β,17β)-17-hydroxy-3-oxo-17-(pentafluoroethyl)estra-4,9-dien-11-yl]biphenyl-4-yl}(RS)(methyl)oxido-λ^6-sulphanylidene]-4-methylbenzene sulphonamide], the negative logarithm of the IC50 (pIC50) was 11.00 in data set [2] (SK-N-MC cells, 24 hours) and 11.00 in data set [3] (SK-N-MC cells, 24 hours). Besides, the Emax in data set [2] (setting [4]) and in data set [3] (setting [4]) was 100% throughout.
